Series [1] deals with T1, Lanosterol 14-alpha demethylase (Candida albicans (strain SC5314 / ATCC MYA-2876) (Yeast), UniProt P10613). As to the kind of experiment: Inhibition of CYP51 in Candida albicans ATCC SC5314 assessed as Obtusifoliol level at 2 ug/ml after 16 hrs by GC-MS analysis (reference value: 0%). Also noted: scale not given: the % may be the effect or the level left. The note with it: candida albicans sc5314, 16 h, at 2 µg/mL.

The test system of series [2] is Candida albicans. As to the kind of experiment: Antifungal activity against fluconazole-resistant Candida albicans CaR assessed as inhibition of microbial growth after 24 hrs by broth microdilution method. In kind it is functional.
Series [3] in a line: Selectivity ratio of IC50 for human MDA-MB-231 cells to MIC for Candida albicans CPCC400616. In kind it is toxicity.
Series [4] relates to Candida albicans. As to the kind of experiment: Anti-biofilm activity in Candida albicans CPCC400616 assessed as inhibition of biofilm formation at 16 ug/ml incubated for 24 hrs with 3 hrs precultured fungal suspension by XTT assay relative to control. It is filed as functional. Background: Formazan colour is commonly taken as a measure of viable cells.
The test system of series [5] is Candida albicans. As to the kind of experiment: Antifungal activity against Candida albicans ATCC SC5314 infected in mouse model of candidiasis assessed as reduction in kidney fungal burden at 0.4 mg/kg/day, ip dosed at 2 hrs post infection and dosed for 4 days. Particulars: time 4.0 day. In kind it is functional, organism-based.
For series [6], the target named is T1, Lanosterol 14-alpha demethylase. The series can be described thus: Inhibition of CYP51 in Candida albicans ATCC SC5314 assessed as Eburicol level at […] ug/ml after 16 hrs by GC-MS analysis (reference value: 0%). Also noted: scale not given: the % may be the effect or the level left. The note with it: candida albicans sc5314, 16 h, dose 0.125 µg/ml.
The test system of series [7] is Candida albicans. The series can be described thus: Antifungal activity against fluconazole-resistant Candida albicans 901 assessed as inhibition of microbial growth after 24 hrs by broth microdilution method. It is filed as functional. A general note: Broth dilution looks for growth in wells or tubes with falling amounts of substance.
Series [8] in a line: Selectivity ratio of IC50 for human HL-60 cells to MIC for Candida albicans CPCC400616. In kind it is toxicity.
The target of series [9] is T1, Lanosterol 14-alpha demethylase. As to the kind of experiment: Inhibition of CYP51 in Candida albicans ATCC SC5314 assessed as ergosterol level at 0.5 ug/ml after 16 hrs by GC-MS analysis (reference value: 98.3%). The note with it: candida albicans sc5314, 16 h, at 0.5 µg/mL. Also noted: scale not given: the % may be the effect or the level left.
In series [10] the test system is Candida albicans. As to the kind of experiment: Anti-biofilm activity in Candida albicans CPCC400616 assessed as inhibition of biofilm formation incubated for 24 hrs with 6 hrs precultured fungal suspension by XTT assay. It is filed as functional.
The nature of series [11]: Selectivity ratio of IC50 for human PC-3 cells to MIC for Candida albicans CPCC400616. In kind it is toxicity.
Series [12] has as its system Candida albicans. As to the kind of experiment: Potency index, ratio of fluconazole MIC to test compound MIC for Candida albicans CPCC400616 measured after 24 hrs by broth microdilution assay. It is filed as functional.
A short description of series [13]: Hemolytic activity in rabbit RBC assessed as hemolysis ratio at 8 ug/ml measured after 3 hrs by microplate reader assay relative to control. In kind it is ADME, cell-based, Oryctolagus cuniculus, Erythrocyte. The note with it: rabbit red blood cells (erythrocytes), at 8 µg/mL, read-out: Activity.
Series [14] in a line: AUC (0 to t) in Sprague-Dawley rat at 5 mg/kg, po by LC-MS analysis. On the set-up: dose 5 mg/kg. Particulars: in vivo. It is filed as ADME, organism-based.
Series [15] has as its system Candida albicans. The series can be described thus: Anti-biofilm activity in Candida albicans CPCC400616 assessed as inhibition of biofilm formation incubated for 24 hrs with 1.5 hrs precultured fungal suspension by XTT assay. In kind it is functional.
A short description of series [16]: Half life in Sprague-Dawley rat at 5 mg/kg, po by LC-MS analysis. Particulars: in vivo. In kind it is ADME, organism-based.
Series [17] addresses T1, Lanosterol 14-alpha demethylase. As to the kind of experiment: Inhibition of CYP51 in Candida albicans ATCC SC5314 assessed as Eburicol level at 0.5 ug/ml after 16 hrs by GC-MS analysis (reference value: 0%). Also noted: scale not given: the % may be the effect or the level left. Particulars: candida albicans sc5314, 16 h, at 0.5 µg/mL.
The nature of series [18]: Oral bioavailability in Sprague-Dawley rat at 5 mg/kg by LC-MS analysis. In kind it is ADME, organism-based. The note with it: in vivo.
The nature of series [19]: AUC (0 to t) in Sprague-Dawley rat at 2 mg/kg, iv by LC-MS analysis. In kind it is ADME, organism-based. On the set-up: dose 2 mg/kg. Particulars: in vivo.
The subject of series [20] is Candida albicans. As to the kind of experiment: Antifungal activity against fluconazole-resistant Candida albicans 904 assessed as inhibition of microbial growth after 24 hrs by broth microdilution method. It is filed as functional.
Series [21] concerns Candida albicans. The series can be described thus: Fungicidal activity against Candida albicans CPCC400616 incubated for 24 hrs and measured after 24 hrs culturing on PDA plate by time-kill kinetics analysis. It is filed as functional, organism-based. The note with it: dose 0.25-2 µg/ml, time 48.0 hrs.
A short description of series [22]: Selectivity ratio of IC50 for human MCF-10A cells to MIC for Candida albicans CPCC400616. It is filed as toxicity.
For series [23], the system named is Candida albicans. As to the kind of experiment: Antifungal activity against Candida albicans ATCC SC5314 infected in mouse model of candidiasis assessed as reduction in kidney fungal burden at 0.6 mg/kg/day, ip dosed at 2 hrs post infection and dosed for 4 days. It is filed as functional, organism-based. The note with it: time 4.0 day.
Series [24] relates to MCF-10A. The series can be described thus: Cytotoxicity against human MCF-10A cells assessed as reduction in cell viability incubated for 96 hrs by MTT assay. In kind it is cell-based. Particulars: read-out: IC50.
Series [25] has as its system Candida albicans. The series can be described thus: Antifungal activity against fluconazole-resistant Candida albicans 17# assessed as inhibition of microbial growth after 24 hrs by broth microdilution method. In kind it is functional.
In series [26] the test system is Candida albicans. The series can be described thus: Antifungal activity against Candida albicans ATCC SC5314 measured after 24 hrs by broth microdilution assay. In kind it is functional.
Series [27] concerns Candida albicans. As to the kind of experiment: Antifungal activity against fluconazole-resistant Candida albicans 632 assessed as inhibition of microbial growth after 24 hrs by broth microdilution method. It is filed as functional.
Series [28] in a line: Half life in Sprague-Dawley rat at 2 mg/kg, iv by LC-MS analysis. In kind it is ADME, organism-based. Particulars: in vivo.
For series [29], the system named is Candida albicans. As to the kind of experiment: Fungicidal activity against Candida albicans CPCC400616 at 2 ug/ml incubated within 8 hrs and measured after 24 hrs culturing on PDA plate by time-kill kinetics analysis (reference value: 5 log10CFU/ml). In kind it is functional. Particulars: dose 2 µg/ml; time 32 hrs.
Series [30] concerns Candida albicans. The series can be described thus: Fungicidal activity against Candida albicans CPCC400616 at 2 ug/ml incubated for 24 hrs and measured after 24 hrs culturing on PDA plate by time-kill kinetics analysis. In kind it is functional, organism-based. Particulars: dose 2.0 µg/ml, time 48.0 hrs.
Series [31] deals with Candida albicans. The series can be described thus: Ratio of MFC for Candida albicans CPCC400616 incubated for 48 hrs followed by culturing on PDA plate for 24 hrs to MIC for Candida albicans CPCC400616 measured after 24 hrs. In kind it is functional.
The subject of series [32] is Candida albicans. As to the kind of experiment: Anti-biofilm activity in Candida albicans CPCC400616 assessed as inhibition of biofilm formation at 32 ug/ml incubated for 24 hrs with 3 hrs precultured fungal suspension by XTT assay relative to control. It is filed as functional.
In series [33] the test system is Erythrocyte. The series can be described thus: Hemolytic activity in rabbit RBC measured after 3 hrs by microplate reader assay. In kind it is ADME, cell-based, Oryctolagus cuniculus.

What is called MIC is the least concentration at which growth counts as inhibited. What is called inhibition is the percentage by which the read-out fell short of the control. By AUC(0-t) is commonly meant the area under the concentration-time curve up to a stated or last time point. By half-life is commonly meant the time in which the quantity being followed falls by half. The term bioavailability denotes the share of a dose that reaches the circulation, judged against a reference dose that is usually intravenous. By IC50 is commonly meant the concentration at which inhibition is half-maximal.

≈ marks a conversion by molar mass, not a printed value. Calls of active or inactive are those of the source. No cut-off for these calls is given here.

T1 sequence (P10613 whole entry): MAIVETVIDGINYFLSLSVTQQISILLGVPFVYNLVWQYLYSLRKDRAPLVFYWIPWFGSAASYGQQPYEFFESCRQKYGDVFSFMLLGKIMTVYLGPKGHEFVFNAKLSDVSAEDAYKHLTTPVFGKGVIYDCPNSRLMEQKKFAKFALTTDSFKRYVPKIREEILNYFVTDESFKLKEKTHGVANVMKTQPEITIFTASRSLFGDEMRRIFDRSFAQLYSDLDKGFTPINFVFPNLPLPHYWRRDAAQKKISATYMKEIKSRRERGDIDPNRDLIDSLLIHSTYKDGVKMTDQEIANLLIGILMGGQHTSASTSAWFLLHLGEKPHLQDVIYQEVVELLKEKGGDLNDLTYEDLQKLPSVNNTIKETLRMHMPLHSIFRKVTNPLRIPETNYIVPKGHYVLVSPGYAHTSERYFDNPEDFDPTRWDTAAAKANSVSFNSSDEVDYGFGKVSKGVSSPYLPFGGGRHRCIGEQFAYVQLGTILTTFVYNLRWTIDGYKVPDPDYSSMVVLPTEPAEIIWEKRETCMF

On to `Fc1ccc([Se]C(Cn2ccnc2)c2ccc(F)cc2F)cc1` (stereo not given), for which the Activity in [1] is 10.8%; in series [6], 73.2%; in [9], 4.9%; in [17] it was 75.1%; in [21] it was “Dose-Dependent Effect”; in series [29] it was 2 log10CFU/ml. The minimal inhibitory concentration (MIC) in series [2] came to 1 µg/mL; in [7] it was 0.5 µg/mL; in [20], 0.06 µg/mL; in series [25] it was 0.06 µg/mL; in series [26] it was 0.02 µg/mL (≈ 0.0525 µM); in series [27], 0.5 µg/mL. The selectivity ratio in series [3], in [8], in [11] and in series [22] was 38 each time. Further, the inhibition at 16 µg/mL in series [4] turned out to be 80%. The result in series [5] and in series [23] was Active. Further, the MIC50 was 64 µg/mL (≈ 168 µM) in series [10] and 4 µg/mL (≈ 10.5 µM) in series [15]. In addition, the MIC80 came out at 128 µg/mL (≈ 336 µM) in series [10] and 8 µg/mL (≈ 21 µM) in series [15]. In addition, in [12], the Ratio is recorded as 8. The hemolysis at 3 h, 8 ug/ml in [13] is 0.33%. The AUC(0-t) in series [14] stood at 1260 ng·h/mL; in [19] it was 2250 ng·h/mL. The results for the half-life in [16] and in series [28] were 1.93 h and 1.89 h, respectively. This compound also displayed a bioavailability in series [18] of 22.3%. Also, in series [24], the concentration for half-maximal inhibition (IC50) is 59.4 µM.
`Clc1ccc(COC(Cn2ccnc2)c2ccc(Cl)cc2Cl)c(Cl)c1` (stereo not given) [MICONAZOLE]: the Activity in series [1] came out at 6.1%; in series [6], 64.8%; in series [9] it was 7.1%; in series [17] it was 75.1%. Further, the result in series [30] was Active. The Ratio in [31] is 8. Moreover, the results for the MIC50 in series [10] and in series [15] were above 128 µg/mL and 16 µg/mL (≈ 38.4 µM), respectively. Further, the MIC80 in series [10] was above 128 µg/mL; in series [15] it was 128 µg/mL (≈ 308 µM). Also, the hemolysis at 3 h, 8 ug/ml in [13] came to 87.3%. Also, the inhibition at 32 µg/mL in series [32] was determined as 50%. The same compound gave a minimum inhibitory concentration (MIC) in series [26] of 0.03 µg/mL (≈ 0.0721 µM). The compound further displayed an MHC in [33] of 8 µg/mL.
